Reference: patent publication US8242274B2, “Triazolopyridine kinase inhibitors useful for the treatment of degenerative and inflammatory diseases” (Galapagos NV, priority 2008, dated 2012)

System: pSTAT1(2)-luciferase reporter
Assay: JAK-STAT signalling assay (HeLa cells, OSM trigger)
Type: cell-based
Conditions: human OSM 33 ng/mL
Description: HeLa cells were maintained in Dulbecco's Modified Eagle's Medium (DMEM) containing 10% heat inactivated fetal calf serum, 100 U/mL penicillin and 100 μg/mL streptomycin. HeLa cells were used at 70% confluence for transfection. 20,000 cells in 87 μL cell culture medium were transiently transfected with 40 ng pSTAT1(2)-luciferase reporter (Panomics), 8 ng of LacZ reporter as internal control reporter and 52 ng of pBSK using 0.32 μL Jet-PEI (Polyplus) as transfection reagent per well in 96-well plate format. After overnight incubation at 37° C., 10% CO2, transfection medium was removed. 75 μL of DMEM+1.5% heat inactivated fetal calf serum was added. 15 μL of compound at 6.7× concentration was added for 60 min and then 10 μL of human OSM (Peprotech) at 33 ng/mL final concentration. […]
40 μL of cell lysate was used to read β-galactosidase activity by adding 180 μL βGal solution (30 μl ONPG 4 mg/mL+150 μL β-Galactosidase buffer (0.06 M Na2HPO4, 0.04 M NaH2PO4, 1 mM MgCl2)) for 20 min. The reaction was stopped by addition of 50 μL Na2CO3 1 M. Absorbance was read at 405 nm.
Luciferase activity was measured using 40 μL cell lysate plus 40 μl of Steadylite® as described by the manufacturer (Perkin Elmer), on the Envision (Perkin Elmer). […]

Structure (SMILES) | EC50
N#Cc1ccc(COc2ccc(-c3cccc4nc(NC(=O)C5CC5)nn34)cc2)cn1 [Compound 176, N-(5-(4-((6-cyanopyridin-3-yl)methoxy)phenyl)-[1,2,4]triazolo[1,5-a]pyridin-2-yl)cyclopropanecarboxamide] | 1 to 100 nM
CC(=O)Nc1ccc(COc2ccc(-c3cccc4nc(NC(=O)C5CC5)nn34)cc2)cc1 [Compound 92, N-(5-(4-(4-acetamidobenzyloxy)phenyl)-[1,2,4]triazolo[1,5-a]pyridin-2-yl)cyclopropanecarboxamide] | > 1000 nM
